In paper PMC4116524, “A virtual screen identified C96 as a novel inhibitor of phosphatidylinositol 3-kinase that displays potent preclinical activity against multiple myeloma in vitro and in vivo” (Oncotarget, 2014):

Experiments:
[1] = test system: AKT phosphorylation in LP1 and JJN3 cells; experiment: IGF-1-stimulated AKT phosphorylation, immunoblotting (Figure 3A); assay type: cell-based; details: 100 μM, 2 hrs, IGF-1 15 min
Method: (§1) To elucidate this specificity, we first evaluated its effects on IGF-1R because IGF-1R as a receptor tyrosine kinase activates PI3K in the presence of IGF-1. To exclude the potential effects of C96 on IGF-1 signaling, LP1 and JJN3 cells were starved overnight followed by C96 or S14161 treatment for 2 hrs, and IGF-1 stimulation for 15 min. As expected, IGF-1 triggered AKT phosphorylation but it was suppressed by both C96 and the proven PI3K inhibitor S14161 without affecting total AKT expression (Figure 3A). […] Next, we evaluated other kinases including non-receptor kinase c-Src and a PI3K parallel kinase ERK which transduces external cellular signals. Both LP1 and JJN3 cells were treated with C96 at increasing concentrations that inhibited AKT and mTOR activation (Figure 2C).
(§2) Figure 3 C96 inhibits AKT but not IGF-1R, ERK or c-Src kinase activation (A) LP1 and JJN3 cells were starved overnight, then treated with 100 (μM of C96 or S14161 for 2 hrs, followed by IGF-1 (100 ng/mL) for 15 min. After incubation, cells were harvested and the expression of p-AKT, p-IGF-1R, total AKT (T-AKT), and IGF-1R proteins were detected by immunoblotting. (B) LP1 and JJN3 were treated with C96 at indicated concentrations for 24 hrs followed by immunoblotting assay for the expression of p-Src, c-Src, p-ERK, and ERK. GAPDH was used as a loading control. […]

[2] = molecular target: T1, AKT3 (Homo sapiens, UniProt Q9Y243); experiment: Kinase activity in cell-free assay (HotSpot); assay type: biochemical
T1 construct: purchased Reaction Biology Corp
Method: (§3) Kinase activity in the presence of C96 was performed by using the HotSpot technology (Reaction Biology Corp., Malvern, PA, USA). Briefly, kinases (PI3Kα, β, δ, γ, AKT1, 2, 3, and mTOR) and substrates were diluted in reaction buffer. Subsequently, 5 nL of serially diluted C96 (in pure DMSO) was delivered into diluted kinase and substrate mixture by using Echo 550 (LabCyte Inc. Sunnyvale, CA). The reaction was started by adding ^33P-ATP (hot ATP) into the reaction mixture (the final concentration was 10 μM) and stopped after 2 hrs incubation at room temperature. The un-reacted hot ATP was washed away before detection.

[3] = molecular target: T2, PI3Kα (Homo sapiens, UniProt P42336); experiment: Kinase activity in cell-free assay (HotSpot); assay type: biochemical
T2 construct: purchased Reaction Biology Corp
Method: as §3

[4] = molecular target: T3, PI3Kδ (Homo sapiens, UniProt O00329); experiment: Kinase activity in cell-free assay (HotSpot); assay type: biochemical
T3 construct: purchased Reaction Biology Corp
Method: as §3

[5] = molecular target: T4, AKT1 (Homo sapiens, UniProt P31749); experiment: Kinase activity in cell-free assay (HotSpot); assay type: biochemical
T4 construct: purchased Reaction Biology Corp
Method: as §3

[6] = molecular target: T5, PI3Kγ (Homo sapiens, UniProt P48736); experiment: Kinase activity in cell-free assay (HotSpot); assay type: biochemical
T5 construct: purchased Reaction Biology Corp
Method: as §3

[7] = molecular target: T6, PI3Kβ (Homo sapiens, UniProt P42338); experiment: Kinase activity in cell-free assay (HotSpot); assay type: biochemical
T6 construct: purchased Reaction Biology Corp
Method: as §3

[8] = molecular target: T7, AKT2 (Homo sapiens, UniProt P31751); experiment: Kinase activity in cell-free assay (HotSpot); assay type: biochemical
T7 construct: purchased Reaction Biology Corp
Method: as §3

[9] = molecular target: T8, mTOR (Homo sapiens, UniProt P42345); experiment: Kinase activity in cell-free assay (HotSpot); assay type: biochemical
T8 construct: purchased Reaction Biology Corp
Method: as §3

[10] = test system: c-Src phosphorylation in LP1 and JJN3 cells; experiment: c-Src phosphorylation, immunoblotting; assay type: cell-based; details: increasing concentrations, 24 hrs
Method: as §1, §2

T4 sequence (P31749 whole entry): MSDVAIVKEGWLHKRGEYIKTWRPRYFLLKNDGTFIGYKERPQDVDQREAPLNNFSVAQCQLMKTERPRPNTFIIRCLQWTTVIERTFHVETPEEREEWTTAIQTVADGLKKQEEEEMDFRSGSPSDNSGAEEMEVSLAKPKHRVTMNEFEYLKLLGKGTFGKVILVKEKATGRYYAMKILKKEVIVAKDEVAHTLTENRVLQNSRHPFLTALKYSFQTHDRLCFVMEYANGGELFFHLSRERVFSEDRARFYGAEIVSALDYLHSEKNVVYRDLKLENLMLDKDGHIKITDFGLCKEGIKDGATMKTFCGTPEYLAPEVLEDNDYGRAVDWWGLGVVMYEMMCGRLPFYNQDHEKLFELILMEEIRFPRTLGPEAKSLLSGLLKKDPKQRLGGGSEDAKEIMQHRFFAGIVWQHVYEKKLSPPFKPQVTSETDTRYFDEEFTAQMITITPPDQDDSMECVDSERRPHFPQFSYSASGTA
T1 sequence (Q9Y243 whole entry): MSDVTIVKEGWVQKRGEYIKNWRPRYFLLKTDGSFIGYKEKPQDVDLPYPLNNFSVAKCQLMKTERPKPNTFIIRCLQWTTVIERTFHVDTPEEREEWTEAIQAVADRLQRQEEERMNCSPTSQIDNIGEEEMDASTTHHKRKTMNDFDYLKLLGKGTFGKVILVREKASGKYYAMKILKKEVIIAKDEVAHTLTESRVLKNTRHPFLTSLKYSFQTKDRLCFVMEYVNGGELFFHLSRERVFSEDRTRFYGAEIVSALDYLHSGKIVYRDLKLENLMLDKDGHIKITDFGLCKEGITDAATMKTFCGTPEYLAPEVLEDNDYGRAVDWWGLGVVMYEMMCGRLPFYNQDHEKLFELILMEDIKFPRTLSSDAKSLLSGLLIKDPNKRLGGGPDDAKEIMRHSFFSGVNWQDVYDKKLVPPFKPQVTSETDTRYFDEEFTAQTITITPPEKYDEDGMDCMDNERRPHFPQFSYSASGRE
T7 sequence (P31751 whole entry): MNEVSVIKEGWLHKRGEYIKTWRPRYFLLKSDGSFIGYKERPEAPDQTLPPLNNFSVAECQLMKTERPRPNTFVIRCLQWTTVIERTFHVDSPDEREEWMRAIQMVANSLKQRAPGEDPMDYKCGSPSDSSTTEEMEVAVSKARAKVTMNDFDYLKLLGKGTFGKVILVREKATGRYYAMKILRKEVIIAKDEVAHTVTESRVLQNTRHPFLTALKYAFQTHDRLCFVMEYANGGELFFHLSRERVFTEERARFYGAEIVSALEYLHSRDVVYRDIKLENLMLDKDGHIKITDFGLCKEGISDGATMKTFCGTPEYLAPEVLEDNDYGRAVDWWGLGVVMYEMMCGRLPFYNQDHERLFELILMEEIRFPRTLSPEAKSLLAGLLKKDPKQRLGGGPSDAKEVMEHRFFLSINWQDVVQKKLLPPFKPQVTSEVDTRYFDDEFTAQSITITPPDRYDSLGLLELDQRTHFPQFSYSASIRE
T3 sequence (O00329 whole entry): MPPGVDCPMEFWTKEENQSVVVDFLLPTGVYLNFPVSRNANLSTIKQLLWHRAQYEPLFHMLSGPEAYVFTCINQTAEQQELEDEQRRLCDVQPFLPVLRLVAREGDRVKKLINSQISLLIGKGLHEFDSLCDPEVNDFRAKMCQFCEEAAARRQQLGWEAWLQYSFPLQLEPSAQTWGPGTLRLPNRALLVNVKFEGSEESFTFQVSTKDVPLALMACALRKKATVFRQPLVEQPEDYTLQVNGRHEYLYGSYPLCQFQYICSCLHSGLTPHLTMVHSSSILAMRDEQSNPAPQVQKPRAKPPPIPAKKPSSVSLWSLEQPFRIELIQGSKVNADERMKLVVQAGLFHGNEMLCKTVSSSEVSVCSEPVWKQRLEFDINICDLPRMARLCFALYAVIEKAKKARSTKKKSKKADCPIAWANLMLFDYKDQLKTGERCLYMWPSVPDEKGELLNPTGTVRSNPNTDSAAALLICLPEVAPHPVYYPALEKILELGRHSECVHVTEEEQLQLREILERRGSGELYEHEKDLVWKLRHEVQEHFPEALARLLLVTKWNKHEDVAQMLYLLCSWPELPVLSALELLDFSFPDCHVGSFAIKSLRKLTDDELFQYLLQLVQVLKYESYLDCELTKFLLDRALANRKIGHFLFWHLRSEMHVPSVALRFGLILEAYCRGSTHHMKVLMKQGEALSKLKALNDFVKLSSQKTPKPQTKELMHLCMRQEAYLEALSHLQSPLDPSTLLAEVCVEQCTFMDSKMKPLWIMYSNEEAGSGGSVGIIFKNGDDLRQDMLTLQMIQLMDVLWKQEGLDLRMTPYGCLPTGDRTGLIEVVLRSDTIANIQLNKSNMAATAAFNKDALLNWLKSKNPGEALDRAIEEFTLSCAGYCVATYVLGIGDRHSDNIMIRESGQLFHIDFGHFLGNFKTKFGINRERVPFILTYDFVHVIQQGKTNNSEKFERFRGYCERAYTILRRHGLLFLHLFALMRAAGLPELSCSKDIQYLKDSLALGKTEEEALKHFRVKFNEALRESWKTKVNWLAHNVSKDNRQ
T3 sequence (P27986 whole entry partner): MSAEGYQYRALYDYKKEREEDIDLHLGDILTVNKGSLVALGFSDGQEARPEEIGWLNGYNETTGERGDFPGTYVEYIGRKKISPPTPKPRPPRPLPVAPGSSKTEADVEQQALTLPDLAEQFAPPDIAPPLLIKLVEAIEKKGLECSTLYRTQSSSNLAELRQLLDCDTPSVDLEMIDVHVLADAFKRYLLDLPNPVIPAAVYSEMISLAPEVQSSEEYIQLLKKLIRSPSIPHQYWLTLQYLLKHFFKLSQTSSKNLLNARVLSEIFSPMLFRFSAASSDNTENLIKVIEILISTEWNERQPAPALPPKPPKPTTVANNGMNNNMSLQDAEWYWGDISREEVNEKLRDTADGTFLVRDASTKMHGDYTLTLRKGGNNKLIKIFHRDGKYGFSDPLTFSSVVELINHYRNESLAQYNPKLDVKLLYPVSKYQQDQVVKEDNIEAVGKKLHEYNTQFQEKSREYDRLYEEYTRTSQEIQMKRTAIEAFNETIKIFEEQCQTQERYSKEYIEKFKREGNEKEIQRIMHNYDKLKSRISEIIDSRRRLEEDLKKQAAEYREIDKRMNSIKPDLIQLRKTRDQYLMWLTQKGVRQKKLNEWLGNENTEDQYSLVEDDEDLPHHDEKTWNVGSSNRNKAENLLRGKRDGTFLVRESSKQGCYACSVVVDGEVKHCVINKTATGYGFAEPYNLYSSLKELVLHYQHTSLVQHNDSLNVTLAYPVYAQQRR
T2 sequence (P42336 whole entry): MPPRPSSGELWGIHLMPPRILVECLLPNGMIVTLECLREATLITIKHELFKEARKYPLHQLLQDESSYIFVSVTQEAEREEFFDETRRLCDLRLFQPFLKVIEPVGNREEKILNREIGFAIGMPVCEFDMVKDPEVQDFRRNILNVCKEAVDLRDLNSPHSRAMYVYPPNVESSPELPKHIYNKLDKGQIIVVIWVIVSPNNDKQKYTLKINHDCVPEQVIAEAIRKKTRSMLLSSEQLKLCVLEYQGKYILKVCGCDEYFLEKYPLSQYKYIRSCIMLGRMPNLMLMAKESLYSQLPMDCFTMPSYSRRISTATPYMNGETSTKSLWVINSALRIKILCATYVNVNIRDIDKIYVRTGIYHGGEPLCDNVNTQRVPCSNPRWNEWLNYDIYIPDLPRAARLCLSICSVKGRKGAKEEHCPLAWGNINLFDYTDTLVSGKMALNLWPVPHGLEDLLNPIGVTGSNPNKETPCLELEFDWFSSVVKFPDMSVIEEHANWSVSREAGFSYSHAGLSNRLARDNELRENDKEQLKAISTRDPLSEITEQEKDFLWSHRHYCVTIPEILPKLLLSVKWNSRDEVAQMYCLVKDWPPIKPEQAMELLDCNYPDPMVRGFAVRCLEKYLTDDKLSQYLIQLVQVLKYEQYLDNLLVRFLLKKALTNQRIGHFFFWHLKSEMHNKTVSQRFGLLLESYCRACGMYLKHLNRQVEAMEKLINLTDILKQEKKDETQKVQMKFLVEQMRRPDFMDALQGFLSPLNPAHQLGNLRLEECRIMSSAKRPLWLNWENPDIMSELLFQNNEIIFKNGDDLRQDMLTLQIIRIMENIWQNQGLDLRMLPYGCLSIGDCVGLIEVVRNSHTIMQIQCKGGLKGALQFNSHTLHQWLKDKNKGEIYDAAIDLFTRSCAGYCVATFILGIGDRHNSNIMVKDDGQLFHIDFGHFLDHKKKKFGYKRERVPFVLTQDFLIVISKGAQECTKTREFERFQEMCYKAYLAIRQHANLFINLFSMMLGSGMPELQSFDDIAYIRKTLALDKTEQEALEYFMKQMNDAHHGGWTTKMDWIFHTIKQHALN
T2 sequence (P27986 whole entry partner): as the sequence (P27986 whole entry partner) above

`O=C1NC(=O)C(=CC=Cc2cccs2)C(=O)N1` [C96, 5-(3-(2-thienyl)-2-propen-1-ylidene)-2,4,6(1H,3H,5H)-pyrimidinetrione] was tested, and the “AKT phosphorylation triggered by IGF-1” value [1] was “suppressed”, the “enzymatic activity AKT3” value ([2]; 300 μM) was “higher than 50%” and the AKT3 catalytic activity ([2]; C96 1.00E-04 M) was 98.26%. The AKT3 catalytic activity ([2]; C96 1.11E-05 M) was 100.98%, the AKT3 catalytic activity ([2]; C96 1.23E-06 M) was 100.31% and the AKT3 catalytic activity ([2]; C96 1.37E-07 M) was 100.29%. For the same compound, the AKT3 catalytic activity ([2]; C96 1.52E-08 M) was 109.49%, the AKT3 catalytic activity ([2]; C96 3.00E-04 M) was 79.18% and the AKT3 catalytic activity ([2]; C96 3.33E-05 M) was 108.59%. For the same compound, the AKT3 catalytic activity ([2]; C96 3.70E-06 M) was 117.76%, the AKT3 catalytic activity ([2]; C96 4.12E-07 M) was 106.62% and the AKT3 catalytic activity ([2]; C96 4.57E-08 M) was 102.54%. The “IC50 AKT3” value ([2]; cell-free) was “not detectable”, the EC50 [3] was ~5 µM and the IC50 [3] was 5.41 µM. The EC50 [4] was ~5 µM, the IC50 [4] was 7.05 µM and the “enzymatic activity AKT1” value ([5]; 300 μM) was “higher than 50%”. The AKT1 catalytic activity ([5]; C96 1.00E-04 M) was 89.13%, the AKT1 catalytic activity ([5]; C96 1.11E-05 M) was 104.72% and the AKT1 catalytic activity ([5]; C96 1.23E-06 M) was 101.71%. For the same compound, the AKT1 catalytic activity ([5]; C96 1.37E-07 M) was 102.27%, the AKT1 catalytic activity ([5]; C96 1.52E-08 M) was 94.32% and the AKT1 catalytic activity ([5]; C96 3.00E-04 M) was 57.61%. It also gave an AKT1 catalytic activity ([5]; C96 3.33E-05 M) of 100.86%, an AKT1 catalytic activity ([5]; C96 3.70E-06 M) of 110.72% and an AKT1 catalytic activity ([5]; C96 4.12E-07 M) of 99.76%. The AKT1 catalytic activity ([5]; C96 4.57E-08 M) was 103.80%, the “IC50 AKT1” value ([5]; cell-free) was “not detectable” and the IC50 [6] was 116 µM. The IC50 [7] was 134 µM, the “enzymatic activity AKT2” value ([8]; 300 μM) was “higher than 50%” and the AKT2 catalytic activity ([8]; C96 1.11E-05 M) was 102.16%. It also gave an AKT2 catalytic activity ([8]; C96 1.23E-06 M) of 97.18%, an AKT2 catalytic activity ([8]; C96 1.37E-07 M) of 97.27% and an AKT2 catalytic activity ([8]; C96 1.52E-08 M) of 95.67%. For the same compound, the AKT2 catalytic activity ([8]; C96 3.00E-04 M) was 86.10%, the AKT2 catalytic activity ([8]; C96 3.33E-05 M) was 100.38% and the AKT2 catalytic activity ([8]; C96 3.70E-06 M) was 102.25%. For the same compound, the AKT2 catalytic activity ([8]; C96 4.12E-07 M) was 100.48%, the AKT2 catalytic activity ([8]; C96 4.57E-08 M) was 100.26% and the “IC50 AKT2” value ([8]; cell-free) was “not detectable”. For the same compound, the “enzymatic activity mTOR” value ([9]; 300 μM) was “higher than 50%”, the mTOR catalytic activity ([9]; C96 1.00E-04 M) was 101.78% and the mTOR catalytic activity ([9]; C96 1.11E-05 M) was 102.93%. For the same compound, the mTOR catalytic activity ([9]; C96 1.23E-06 M) was 99.81%, the mTOR catalytic activity ([9]; C96 1.37E-07 M) was 100.28% and the mTOR catalytic activity ([9]; C96 1.52E-08 M) was 96.95%. It also gave a mTOR catalytic activity ([9]; C96 3.00E-04 M) of 102.57%, a mTOR catalytic activity ([9]; C96 3.33E-05 M) of 100.02% and a mTOR catalytic activity ([9]; C96 3.70E-06 M) of 101.74%. For the same compound, the mTOR catalytic activity ([9]; C96 4.12E-07 M) was 99.37%, the mTOR catalytic activity ([9]; C96 4.57E-08 M) was 99.19% and the “IC50 mTOR” value ([9]; cell-free) was “not detectable”. For the same compound, the “phosphorylation level of c-Src” value [10] was “did not decrease”.
